The text below walks through data of ChEMBL document CHEMBL1201862, “PubChem BioAssay data set” (2004).

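Following 48 hours of exposure in 96-well plates, responses at five concentrations were used to interpolate endpoints linearly. GI50 marks 50% less growth.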 Active and inactive are the calls of the source. Rule as the data show it: active = GI50 up to about 1.1 µM and inactive = higher.

Common to all, as to experiment: DTP human tumour cell line panel, 48 h
In assay [1] the test system is 786-0.
For assay [2], the system named is A498.
The test system of assay [3] is A549.
The test system of assay [4] is BT-549.
Assay [5] relates to CCRF-CEM.
Assay [6] concerns COLO 205.
Assay [7] has as its system HCT-116.
The test system of assay [8] is K562.
Assay [9] concerns KM12.
For assay [10], the system named is LOX IMVI.
The test system of assay [11] is MOLT-4.
In assay [12] the test system is OVCAR-3.
The subject of assay [13] is OVCAR-4.
Assay [14] relates to SF-268.
Assay [15] deals with SK-MEL-28.
In assay [16] the test system is SNB-19.
For assay [17], the system named is U-251.
In assay [18] the test system is UO-31.
Assay [19] relates to IGROV-1.
The test system of assay [20] is HOP-62.

As a reminder, the GI50 is the concentration that inhibits growth by half. Regarding `COC(=O)C(CCCCN)NC(C)=O.Cc1ccc(C(=O)Nc2ccc(S(=O)(=O)O)c3cc(S(=O)(=O)O)cc(S(=O)(=O)O)c23)cc1NC(=O)c1cccc(NC(=O)Nc2cccc(C(=O)Nc3cc(C(=O)Nc4ccc(S(=O)(=O)O)c5cc(S(=O)(=O)O)cc(S(=O)(=O)O)c45)ccc3C)c2)c1`, the GI50 in assay [1], in [2], in assay [3], in assay [4], in assay [5] and in [6] was > 50 µM (inactive) each time. Also, the GI50 was > 50 µM (inactive) in [7]; > 50 µM (inactive) in assay [8]; > 50 µM (inactive) in assay [9]; 44.8 µM (inactive) in assay [10]; > 50 µM (inactive) in [11]; > 50 µM (inactive) in [12]. Also, the GI50 was 0.5 µM (active) in assay [13]; > 50 µM (inactive) in assay [14]; > 50 µM (inactive) in assay [15]; > 50 µM (inactive) in assay [16]; > 50 µM (inactive) in [17]; > 50 µM (inactive) in assay [18].
For the molecule `C[n+]1c(-c2ccc(/C=N\N3CCN(/N=C/c4ccc(-c5cn6ccsc6[n+]5C)cc4)CC3)cc2)cn2ccsc21`, the GI50 in assay [1] was 26.1 µM (inactive); in assay [2], 23.1 µM (inactive); in [3] it was 44.1 µM (inactive); in [4], 17.1 µM (inactive); in assay [5], 36.7 µM (inactive); in [6] it was 16.8 µM (inactive). For the same molecule, the GI50 in assay [7] was 33.3 µM (inactive); in assay [19], 30.7 µM (inactive); in [8], 11.8 µM (inactive); in assay [9], 25.8 µM (inactive); in assay [10], 60.8 µM (inactive); in assay [11], 85.3 µM (inactive). For the same molecule, the GI50 is 59.8 µM (inactive) in assay [12]; 28.4 µM (inactive) in [13]; 34.4 µM (inactive) in [14]; 38.4 µM (inactive) in assay [16]; 30.3 µM (inactive) in assay [17]; 89.5 µM (inactive) in assay [18].
For `O=P(O)(O)c1ccc2c(c1)OCCOCCOCCOCCO2`, the GI50 in assay [1], in assay [2], in assay [3], in assay [4], in [5] and in assay [6] was > 100 µM (inactive) each time. For the same molecule, the GI50 in [7], in assay [20], in assay [19], in assay [8], in assay [9] and in [10] was > 100 µM (inactive) each time. Also, the GI50 in assay [11], in assay [14], in assay [15], in assay [16] and in [18] was > 100 µM (inactive) each time.
For the molecule `CC[C@@]12CCCN3CC[C@]4(c5cccc(OC)c5N(C(C)=O)[C@@H]4CC1)[C@H]32` [ASPIDOSPERMINE], the GI50 in assay [1] was 80.5 µM (inactive); in [2], 42.7 µM (inactive); in [3], > 100 µM (inactive); in assay [4], 86.9 µM (inactive); in assay [5], 26.2 µM (inactive); in assay [6] it was > 100 µM (inactive). Further, the GI50 in assay [7] is 44.9 µM (inactive); in assay [20], > 100 µM (inactive); in [19], 24.2 µM (inactive); in assay [9], 84.5 µM (inactive); in [10] it was 30.6 µM (inactive); in assay [11] it was 25.3 µM (inactive). The GI50 is > 100 µM (inactive) in assay [12]; 92.9 µM (inactive) in assay [13]; > 100 µM (inactive) in assay [14]; 80.2 µM (inactive) in assay [15]; > 100 µM (inactive) in [16]; 94 µM (inactive) in assay [17]. Further, in assay [18], the GI50 was 68.5 µM (inactive).
For the molecule `CCCCCCC(N)(CCCCCC)C(=O)Nn1c(C)ccc1C`, the GI50 in [1] was 28.6 µM (inactive); in assay [2], > 100 µM (inactive); in [3], 11.4 µM (inactive); in assay [4], > 100 µM (inactive); in [5], > 100 µM (inactive); in assay [6], 57.4 µM (inactive). Besides, the GI50 in assay [7] is 10.9 µM (inactive); in assay [20], > 100 µM (inactive); in assay [19], > 100 µM (inactive); in assay [8] it was > 100 µM (inactive); in assay [9], 15.5 µM (inactive); in assay [11], > 100 µM (inactive). The GI50 is > 100 µM (inactive) in [12]; > 100 µM (inactive) in [13]; 16 µM (inactive) in [14]; > 100 µM (inactive) in assay [15]; > 100 µM (inactive) in [16]; > 100 µM (inactive) in [17]. Moreover, the GI50 in assay [18] is 25.1 µM (inactive).
`C=C1[C@H](OC(C)=O)[C@H]2[C@@H](OC(C)=O)[C@@H](C)C[C@]2(C)C(=O)[C@H](C)/C=C/C(C)(C)C(=O)[C@H](OCC(C)C)[C@H]1OC(C)=O`: the GI50 in assay [1] is > 25 µM (inactive); in assay [2] it was > 25 µM (inactive); in assay [4] it was > 25 µM (inactive); in assay [5] it was 20.2 µM (inactive); in assay [6] it was 12.9 µM (inactive); in [7], > 25 µM (inactive). For the same molecule, the GI50 in assay [20] was 19.5 µM (inactive); in assay [19], > 25 µM (inactive); in assay [9], > 25 µM (inactive); in [10] it was > 25 µM (inactive); in assay [11] it was 20.7 µM (inactive); in [12], > 25 µM (inactive). Further, the GI50 in assay [13], in assay [14], in assay [16], in [17] and in [18] was > 25 µM (inactive) in each case.
`CC(=O)c1cn(-c2ccc(Cl)cc2)c(=O)c2c(N)n[nH]c12`: the GI50 in [1] was > 100 µM (inactive); in [2] it was > 100 µM (inactive); in assay [4], 2.56 µM (inactive); in assay [5], > 100 µM (inactive); in [6], > 100 µM (inactive); in assay [7] it was > 100 µM (inactive). In addition, the GI50 in assay [20] is > 100 µM (inactive); in [19], > 100 µM (inactive); in assay [8] it was 22.3 µM (inactive); in [9], > 100 µM (inactive); in assay [10] it was 43 µM (inactive); in assay [11] it was > 100 µM (inactive). In addition, the GI50 in assay [13], in [14], in assay [15], in assay [16], in [17] and in [18] was > 100 µM (inactive) in each case.
For `CC1(C)C2CCC1C(=O)C(C=O)C2` (configuration not stated), the GI50 in assay [1], in [2], in assay [3], in assay [4], in assay [5] and in [6] was > 100 µM (inactive) each time. The GI50 in assay [7], in assay [20], in [19], in assay [8], in assay [9] and in [10] was > 100 µM (inactive) throughout. For the same molecule, the GI50 in assay [11], in assay [12], in [14], in assay [15], in assay [16] and in assay [17] was > 100 µM (inactive) throughout. In addition, the GI50 in [18] was > 100 µM (inactive).
`O=CC(O)C(O)C(O)C(O)C(=O)NCCCCCCCCCCCCNC(=O)C(O)C(O)C(O)C(O)C=O` (configuration not stated): the GI50 in assay [1], in [2], in [3], in assay [4], in [5] and in assay [6] was > 100 µM (inactive) in each case. The GI50 in assay [7], in [20], in assay [19], in assay [9], in [10] and in assay [11] was > 100 µM (inactive) each time. Besides, the GI50 in assay [12], in [13], in [14], in assay [15], in assay [16] and in [17] was > 100 µM (inactive) each time. The GI50 in assay [18] was > 100 µM (inactive).
`CC(C)(C)O/C=C1/C(=O)OC2C[C@@H](O[Si](C)(C)C(C)(C)C)CC12` (some centres not stated): the GI50 in [1] was > 100 µM (inactive); in [2] it was > 100 µM (inactive); in assay [3], 58.9 µM (inactive); in assay [4], 56.5 µM (inactive); in assay [5], 42.7 µM (inactive); in assay [6], 72.9 µM (inactive). The GI50 in [7] was 37.1 µM (inactive); in assay [20] it was > 100 µM (inactive); in assay [19], 72.6 µM (inactive); in [9], 65.2 µM (inactive); in [10], 36.6 µM (inactive); in [12], 48.4 µM (inactive). In addition, the GI50 in [13] is 74 µM (inactive); in assay [14], 80.9 µM (inactive); in [15], > 100 µM (inactive); in assay [16], 94.2 µM (inactive); in assay [17], 48 µM (inactive); in assay [18] it was 52.2 µM (inactive).
